What all share (assay type): cell-based
The test system of assay [1] is primary human mesenchymal stem cells (hMSCs). The assay can be described thus: Induction of chondrogenesis in human mesenchymal stem cells (nodule area, Rhodamine B/Nile Red). The settings on record: hMSC chondrogenesis; for EC50: concentration required to induce 50% levels of chondrogenesis of TGF-β3 positive control, read-out: Conc (nM) of 50% TGF-β3 activity; for Emax: relative to TGF-β3 (10 ng/mL) positive control, read-out: Max. Activity as % TGF-β3 activity. The source says: Representative compounds were screened using primary human mesenchymal stem cells (hMSCs) to determine their ability to induce chondrogenesis (process by which cartilage is developed).
Primary human mesenchymal stem cells (hMSCs) were purchased from Lonza (Walkersville, Md.) and expanded in Mesenchymal Stem Cell Growth Media (Lonza). Cells between passage 3 and 6 were used for the experiments.
Area of nodules in each well was normalized to the average of 3 DMSO treated wells on the same plate using Excel (Microsoft Inc.). The normalized averages (fold change over DMSO) of 2 or 3 replicate wells for each compound concentration were calculated. Due to solubility limitations of some of the compounds, curve fitting was incomplete leading to inaccurate EC50 determinations.
Using TGF-β3 as a positive control, the concentration of representative compounds required to induce 50% levels of chondrogenesis is reported. In addition, the maximum activity of each compound and the respective dose that each compound reached maximum chondrogenesis activity is reported.

Assay [2] relates to IL-6 (THP-1 human monocyte cell line). In words: IL-6 inhibition in LPS-stimulated THP-1 cells (HTRF). To be noted: for EC50: IL-6 inhibition, LPS-stimulated THP-1 cells, HTRF; for inhibition at 10 µM: THP-1, read-out: percentage in parentheses beside EC50 >10 (IL-6 inhibition). In outline: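 THP-1 cells kept 24 h in 1% FBS medium, treated 2 h at 37 °C, then stimulated with 500 ng/mL LPS for another 22 h. IL-6 measured by HTRF as the 665/620 nm ratio; EC50 from a four-parameter fit normalized to DMSO controls.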
On the technique in general: In TR-FRET formats the signal depends on donor and acceptor labels being close together.

The next assay has as its system SW480 colon cancer cells. The assay can be described thus: Cell viability assay (CellTiter-Blue), SW480 cells, four days. The settings on record: Homo sapiens; for EC50: 96 h, SW480 cell viability, four days, CellTiter-Blue; for inhibition at 10 µM: SW480, read-out: percent inhibition at 10 μM. Put shortly: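 Fluorescence from resazurin reduced to resorufin by metabolically active cells was the read-out, taken after ~3 h with CellTiter-Blue.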

Assay [3] relates to primary human fibroblasts derived from IPF patients (LL29 cells) treated with TGF-β1. In words: Inhibition of the fibrotic process: αSMA staining in TGF-β1 treated LL29 fibroblasts. The settings on record: Fibroblast; for EC50: 96 h, LL29 cells, TGF-β1 20 ng/mL, 4 days, % αSMA positive cells; for inhibition at 10 µM: read-out: percent inhibition at 10 μM. Put shortly: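 IPF-patient-derived LL29 lung fibroblasts in F12 with 1% FBS, stimulated with TGF-β1 alongside compound; TGF-β1 plus DMSO wells served as controls. After 4 days, nuclei stained with 1 μM SYTOX green for 30 min at room temperature, alongside αSMA staining.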

Assay [4] has as its system Wnt activity (Sp5-Luc reporter, SW480 colon carcinoma cells). The assay can be described thus: Wnt activity screening assay, Sp5-Luc reporter gene in SW480 cells. The settings on record: Homo sapiens; for EC50: Sp5-Luc reporter, SW480 cells, overnight incubation; for inhibition at 10 µM: SW480, read-out: percent inhibition at 10 μM. Put shortly: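 SW480 cells stably transduced with lentiviral Sp5 promoter (eight TCF/LEF sites)-firefly luciferase, plated at 4,000 cells/well in 1% FBS medium and incubated overnight at 37° C. Luminescence read after BrightGlo addition, normalized to DMSO-only cells; EC50 from four-parameter variable-slope nonlinear regression.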
(Reporter assays use an easily measured gene product as a stand-in for the process of interest.)

A value given as a limit tells only on which side of the number the result lay.

One may read the inhibition as the drop in the measured response relative to a control, in per cent.

In the case of `CCC(=O)Nc1cncc(-c2ccc3[nH]nc(-c4cc5c(-c6cccc(F)c6)ccnc5[nH]4)c3c2)c1` [Compound 1, N-(5-(3-(4-(3-Fluorophenyl)-1H-pyrrolo[2,3-b]pyridin-2-yl)-1H-indazol-5-yl)pyridin-3-yl)propionamide], the EC50 came to 100 nM in assay [1]; 6.14 µM in assay [2]; 1.03 µM with SW480 colon cancer cells; 0.141 µM in assay [3]; 0.013 µM in assay [4]. In assay [1], the Emax is 167%.
Regarding `CCNCc1cncc(-c2ccc3[nH]nc(-c4cc5c(-c6cccc(F)c6)ccnc5[nH]4)c3c2)c1` [Compound 6, N-((5-(3-(4-(3-Fluorophenyl)-1H-pyrrolo[2,3-b]pyridin-2-yl)-1H-indazol-5-yl)pyridin-3-yl)methyl)ethanamine], the EC50 in assay [1] was 30 nM; in assay [2], 3.97 µM; in the assay with SW480 colon cancer cells it was 0.561 µM; in assay [3], 1.2 µM; in assay [4] it was 1.68 µM. Also, in assay [1], the Emax amounted to 59%.
Turning to `CN(C)Cc1cncc(-c2ccc3[nH]nc(-c4cc5c(-c6cccc(F)c6)ccnc5[nH]4)c3c2)c1` [Compound 13, 1-(5-(3-(4-(3-Fluorophenyl)-1H-pyrrolo[2,3-b]pyridin-2-yl)-1H-indazol-5-yl)pyridin-3-yl)-N,N-dimethylmethanamine], in assay [1], the Emax came out at 48%. The EC50 in assay [2] is above 10 µM; in the assay on SW480 colon cancer cells, 2.92 µM; in assay [3] it was 1.19 µM; in assay [4], 1.18 µM. Further, the inhibition at 10 µM in assay [2] is 55.3%.
`Fc1ccc(-c2ccnc3[nH]c(-c4n[nH]c5ccc(-c6cncc(CN7CCCC7)c6)cc45)cc23)cc1` [Compound 42, 3-(4-(4-Fluorophenyl)-1H-pyrrolo[2,3-b]pyridin-2-yl)-5-(5-(pyrrolidin-1-ylmethyl)pyridin-3-yl)-1H-indazole]: in assay [1], the Emax worked out at 22%. The EC50 in assay [2] is above 10 µM; in the assay on SW480 colon cancer cells, 1.51 µM; in assay [3], 2.93 µM; in assay [4], above 10 µM. For the same molecule, the inhibition at 10 µM in assay [2] was found to be 40.2%; in assay [4] it was 14.8%.
Regarding `Fc1ccc(-c2ccnc3[nH]c(-c4n[nH]c5ccc(-c6cncnc6)cc45)cc23)cc1` [Compound 55, 3-(4-(4-Fluorophenyl)-1H-pyrrolo[2,3-b]pyridin-2-yl)-5-(pyrimidin-5-yl)-1H-indazole], the EC50 in assay [1] was 2700 nM; in assay [2], above 10 µM; with SW480 colon cancer cells, above 10 µM; in assay [3], above 10 µM; in assay [4] it was above 10 µM. Further, the Emax in assay [1] is 82%. Also, the inhibition at 10 µM in assay [2] is 25.6%; in the assay on SW480 colon cancer cells, 17.3%; in assay [3], 7.3%; in assay [4] it was 11.7%.
As to `Nc1cncc(-c2ccc3[nH]nc(-c4cc5c(-c6ccccc6F)ccnc5[nH]4)c3c2)c1` [Compound 59, 5-(3-(4-(2-Fluorophenyl)-1H-pyrrolo[2,3-b]pyridin-2-yl)-1H-indazol-5-yl) pyridin-3-amine], in assay [1], the Emax was 24%. Besides, the EC50 in assay [2] was above 10 µM; with SW480 colon cancer cells, 0.399 µM; in assay [3], 0.592 µM; in assay [4], 0.131 µM. Also, the inhibition at 10 µM in assay [2] was 31.6%.
Turning to `c1cc(-c2ccnc3[nH]c(-c4n[nH]c5ccc(-c6cn[nH]c6)cc45)cc23)ccn1` [Compound 571, 5-(1H-Pyrazol-4-yl)-3-(4-(pyridin-4-yl)-1H-pyrrolo[2,3-b]pyridin-2-yl)-1H-indazole], the EC50 (in assay [2]; in the assay on SW480 colon cancer cells; in assay [3]; in assay [4]) was above 10 µM throughout. Further, the inhibition at 10 µM in assay [2] came to 37%; in the assay on SW480 colon cancer cells, 23.8%; in assay [3] it was 28.3%; in assay [4] it was 37%.
In the case of `Cc1ncc(-c2ccc3[nH]nc(-c4cc5c(-c6ccncc6)ccnc5[nH]4)c3c2)n1C` [Compound 573, 5-(1,2-Dimethyl-1H-imidazol-5-yl)-3-(4-(pyridin-4-yl)-1H-pyrrolo[2,3-b]pyridin-2-yl)-1H-indazole], the EC50 in assay [2] is above 10 µM; with SW480 colon cancer cells, 1.15 µM; in assay [3], above 10 µM; in assay [4] it was above 10 µM. The values for the inhibition at 10 µM in assay [2], in assay [3] and in assay [4] were 26.4%, 113% and 8%, respectively.
Regarding `c1cc(N2CCCCC2)c2cc(-c3n[nH]c4ccc(-c5cn[nH]c5)cc34)[nH]c2n1` [Compound 603, 3-(4-(Piperidin-1-yl)-1H-pyrrolo[2,3-b]pyridin-2-yl)-5-(1H-pyrazol-4-yl)-1H-indazole], the EC50 amounted to 0.663 µM in assay [2], 0.296 µM in the assay with SW480 colon cancer cells, 0.304 µM in assay [3] and 0.181 µM in assay [4].
Consider `NC1CN(c2cncc(-c3ccc4[nH]nc(-c5cc6c(N7CCCCC7)ccnc6[nH]5)c4c3)n2)C1` [Compound 606, 1-(6-(3-(4-(Piperidin-1-yl)-1H-pyrrolo[2,3-b]pyridin-2-yl)-1H-indazol-5-yl)pyrazin-2-yl)azetidin-3-amine], for which the EC50 in assay [2] was above 10 µM; in the assay with SW480 colon cancer cells, above 10 µM; in assay [3], 3.62 µM; in assay [4] it was above 10 µM. Moreover, the inhibition at 10 µM in assay [2] worked out at 39.1%; with SW480 colon cancer cells, 10.2%; in assay [4] it was 20.2%.
For `c1cc(N2CCCCC2)c2cc(-c3n[nH]c4ccc(-c5cncc(OC6CCCCC6)c5)cc34)[nH]c2n1` [Compound 607, 5-(5-(Cyclohexyloxy)pyridin-3-yl)-3-(4-(piperidin-1-yl)-1H-pyrrolo[2,3-b]pyridin-2-yl)-1H-indazole], the EC50 in assay [2] is above 10 µM; in the assay on SW480 colon cancer cells it was 8.58 µM; in assay [3], 7.1 µM; in assay [4] it was above 10 µM. In addition, the inhibition at 10 µM in assay [2] was determined as 20%; in assay [4] it was 28.4%.
For the molecule `CN1CCN(c2ccnc3[nH]c(-c4n[nH]c5ccc(-c6cncc(OCc7ccccc7)c6)cc45)cc23)CC1` [Compound 646, 5-(5-(Benzyloxy)pyridin-3-yl)-3-(4-(4-methylpiperazin-1-yl)-1H-pyrrolo[2,3-b]pyridin-2-yl)-1H-indazole], the EC50 was above 10 µM in assay [2], 4.82 µM with SW480 colon cancer cells, 0.316 µM in assay [3] and 4.88 µM in assay [4]. Further, the inhibition at 10 µM in assay [2] is 37.9%.
Turning to `COc1cncc(-c2ccc3[nH]nc(-c4cc5c(-c6ccsc6)ccnc5[nH]4)c3c2)c1` [Compound 676, 5-(5-Methoxypyridin-3-yl)-3-(4-(thiophen-3-yl)-1H-pyrrolo[2,3-b]pyridin-2-yl)-1H-indazole], the EC50 in assay [2] is above 10 µM; with SW480 colon cancer cells it was above 10 µM; in assay [3] it was 7.78 µM; in assay [4] it was above 10 µM. Further, the inhibition at 10 µM in assay [2] worked out at 38.4%; with SW480 colon cancer cells, 0%; in assay [4], 21%.
Regarding `c1cnc(-c2ccc3[nH]nc(-c4cc5c(-c6ccoc6)ccnc5[nH]4)c3c2)cn1` [Compound 696, 3-(4-(Furan-3-yl)-1H-pyrrolo[2,3-b]pyridin-2-yl)-5-(pyrazin-2-yl)-1H-indazole], the EC50 in assay [2] is above 10 µM; in the assay with SW480 colon cancer cells, 3.99 µM; in assay [3], 2.48 µM; in assay [4] it was 4.15 µM. Moreover, in assay [2], the inhibition at 10 µM turned out to be 43.3%.
With `c1csc(-c2ccnc3[nH]c(-c4n[nH]c5ccc(-c6cnccn6)cc45)cc23)c1` [Compound 712, 5-(Pyrazin-2-yl)-3-(4-(thiophen-2-yl)-1H-pyrrolo[2,3-b]pyridin-2-yl)-1H-indazole], the EC50 in assay [2] was above 10 µM; in the assay on SW480 colon cancer cells, above 10 µM; in assay [3], 1.4 µM; in assay [4], above 10 µM. Besides, the inhibition at 10 µM in assay [2] turned out to be 36.3%; in the assay with SW480 colon cancer cells, 13.9%; in assay [4], 5.6%.

The values are drawn from US10350199B2, “3-(1h-pyrrolo[2,3-b]pyridin-2-yl)-1h-indazoles and therapeutic uses thereof” (Samumed, LLC, priority 2015, dated 2019).
